This note sets out measurements from patent publication US11234968B2, “Use of VCP inhibitor and oncolytic virus in the preparation of an anti-tumor drug” (priority 2016, dated 2022).

The structures appear in SMILES notation. Where “and” joins values, the source holds several entries; their conditions need not be identical. Equal values may be shown once.

The subject of assay [1] is human liver cancer cell Hep3B. Kind of assay: MTT survival rate of Hep3B cells, VCP inhibitor and/or M1 virus (Example 2). It counts as cell-based. The protocol: b) Reaction of MTT (3-(4,5-dimethylthiazol-2-yl)-2,5-diphenyltetrazolium bromide) with succinate dehydrogenase in the cells as follows: 48 hours after culture, 20 μl MTT (5 mg/ml) was added into each well, and was incubated for further 4 hours.
c) Dissolution of formazan particles formed in the cells was accomplished as follows: the supernatant was carefully sucked off, 100 μl/well DMSO was added to dissolve the formed crystals, and was shaken in a microoscillator for 5 minutes. Then, the optical density (OD value) of each well was detected in an enzyme linked detector at a wavelength of 570 nm. The experiments were repeated for 3 times for each group. The survival rate of the cells=OD value of the drug treatment group/OD value of the control group×100%.
Single and double asterisks in FIGS. 2(A) and 2(B) indicate results with one way ANOVA analysis showing a statistical difference with a single asterisk (*) indicating P<0.05 and a double asterisk (**) indicating P<0.01.

Assay [2] deals with endoplasmic reticulum stress markers (IRE1, XBP1(S), BiP, p-PERK, p-eIF2a, ATF6, poly-ub; caspase-12, CHOP, p-JNK). Kind of assay: Western blot of endoplasmic reticulum stress markers and ER stress-associated apoptosis in Hep3B (Example 5). The assay is classed as cell-based, human. The settings on record: Eeyarestatin I 5 μM and/or M1 virus MOI=0.001. (In general: A western blot detects proteins with antibodies after separation by electrophoresis.)
Description: The cells in the exponential growth phase were selected and added into a DMEM complete culture medium to prepare a cell suspension. The cells were inoculated into a 60 mm culture dish at a density of 1×10^6. After 12 hours the cells were completely adherent to the wall. […] The dose was used as follows: M1 virus (MOI=0.001) that infected cells; Eeyarestatin I (5 μM).
After the time of drug treatment was set up, the protein samples were collected to carry out the Western blot for detecting the marker of endoplasmic reticulum stress (IRE1 XBP1(S), BiP, p-PERK, p-eIF2a, ATF6, poly-ub); and the activation of the pathway of endoplasmic reticulum stress-associated apoptosis (caspase-12, CHOP, p-JNK).

Assay [3] deals with human liver cancer cell Hep3B. Kind of assay: Morphological observation by phase contrast microscope (Example 1). The settings on record: Eeyarestatin I 5 μM and/or M1 virus MOI=0.001; 48 hours after treatment. It counts as cell-based.
Description: b) Cell treatment and morphological observation: The cells in exponential growth phase were selected and added into a DMEM complete culture medium (containing 10% fetal bovine serum, 1% penicillin/streptomycin (Life Technologies)) to prepare a cell suspension. The cells were inoculated into a 24-well culture plate at a density of 2.5×10^4/well. Each well was then treated by addition of Eeyarestatin I (5 μM), M1 virus (MOI=0.001) or Eeyarestatin I (5 μM) plus M1 virus (MOI=0.001) or left untreated as a control.

Take `Cc1cc2c(C(N)=O)cccc2n1-c1nc2c(c(NCc3ccccc3)n1)COCC2` [CB-5083]: the relative survival rates result in assay [1] (CB-5083 alone compared to combination with M1 (MOI=0.001), 0.124 to 2 μM, FIG. 2(B)) was “significantly higher relative survival rates”.

Consider `CC1(C)C(N(O)C(=O)Nc2ccc(Cl)cc2)N(c2ccc(Cl)cc2)C(=O)N1CC(=O)N/N=C/C=C/c1ccc([N+](=O)[O-])o1` (centres unmarked) [Eeyarestatin I], for which the “endoplasmic reticulum stress-associated markers and apoptosis pathway” value in assay [2] was “induce the increase of endoplasmic reticulum stress-associated markers such as IREI, XBPI (S), p-PERK, p-eIF2a”. Moreover, in assay [3], the “morphology of the cells” value is “morphology of the cells was not changed significantly”. Also, in assay [1] (5 μM alone), the “reduction in cell number” value came out at 12.8%. In addition, the “survival rate of tumor cells” value in assay [1] (5 μM alone, 48 hours, MTT) is 87.2% and 78.2%.
